This passage reports AC50 results from ChEMBL document CHEMBL5291721, “A preclinical secondary pharmacology resource illuminates target-adverse drug reaction associations of marketed drugs” (Nat Commun, 2023).

Molecules are shown by their SMILES. Several values for one entry are separate records, joined by “and”; a condition that tells them apart may be missing. Identical values can stand only once.

For assay [1], the target named is T1, Alpha-2A adrenergic receptor (Homo sapiens, UniProt P08913).
T1 sequence (P08913 whole entry): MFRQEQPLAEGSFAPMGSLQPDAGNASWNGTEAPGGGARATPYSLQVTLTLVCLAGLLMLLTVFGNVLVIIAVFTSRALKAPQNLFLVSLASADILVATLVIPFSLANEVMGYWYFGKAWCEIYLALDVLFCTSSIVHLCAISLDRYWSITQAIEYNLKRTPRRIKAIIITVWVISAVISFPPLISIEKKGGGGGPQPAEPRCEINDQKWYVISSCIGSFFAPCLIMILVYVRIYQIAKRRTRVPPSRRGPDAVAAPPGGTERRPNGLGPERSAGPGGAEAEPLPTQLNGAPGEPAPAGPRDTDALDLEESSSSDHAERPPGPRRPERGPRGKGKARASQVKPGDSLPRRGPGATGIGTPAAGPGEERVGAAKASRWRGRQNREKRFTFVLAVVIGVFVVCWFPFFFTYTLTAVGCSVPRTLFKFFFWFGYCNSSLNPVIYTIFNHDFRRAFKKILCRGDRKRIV
The assay is classed as functional, cell-based.

For assay [2], the target named is T2, Alpha-2C adrenergic receptor (Homo sapiens, UniProt P18825).
T2 sequence (P18825 whole entry): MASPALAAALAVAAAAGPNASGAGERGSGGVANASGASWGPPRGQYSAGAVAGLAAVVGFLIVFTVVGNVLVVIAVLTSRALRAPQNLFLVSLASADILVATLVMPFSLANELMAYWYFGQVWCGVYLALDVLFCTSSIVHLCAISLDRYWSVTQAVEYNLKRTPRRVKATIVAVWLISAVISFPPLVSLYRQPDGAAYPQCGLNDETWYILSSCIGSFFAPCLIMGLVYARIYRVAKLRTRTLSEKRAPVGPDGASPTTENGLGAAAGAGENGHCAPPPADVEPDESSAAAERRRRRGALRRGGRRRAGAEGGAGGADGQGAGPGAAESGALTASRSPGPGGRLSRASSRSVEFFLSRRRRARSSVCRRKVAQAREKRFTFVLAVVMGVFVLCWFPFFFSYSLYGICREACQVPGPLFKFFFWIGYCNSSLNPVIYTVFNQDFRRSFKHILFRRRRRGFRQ
It counts as functional.

Assay [3] has as its target Growth hormone secretagogue receptor type 1 (Homo sapiens, UniProt Q92847).
For assay [4], the target named is Glutamate receptor ionotropic, NMDA 1 (Rattus norvegicus, UniProt P35439).
Assay [5] deals with T3, 5-hydroxytryptamine receptor 1A (Homo sapiens, UniProt P08908).
T3 sequence (P08908 whole entry): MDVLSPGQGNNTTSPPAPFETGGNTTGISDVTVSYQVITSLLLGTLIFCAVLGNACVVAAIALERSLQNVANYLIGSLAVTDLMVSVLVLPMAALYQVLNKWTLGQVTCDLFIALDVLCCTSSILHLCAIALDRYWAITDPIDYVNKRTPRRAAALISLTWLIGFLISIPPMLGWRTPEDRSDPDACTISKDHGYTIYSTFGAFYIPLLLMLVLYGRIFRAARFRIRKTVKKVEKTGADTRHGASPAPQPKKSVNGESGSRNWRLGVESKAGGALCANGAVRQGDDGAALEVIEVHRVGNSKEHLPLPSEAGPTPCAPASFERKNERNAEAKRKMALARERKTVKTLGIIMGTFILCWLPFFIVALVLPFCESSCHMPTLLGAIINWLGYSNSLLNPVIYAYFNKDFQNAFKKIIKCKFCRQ
The assay is classed as functional, cell-based.

In assay [6] the target is Voltage-gated inwardly rectifying potassium channel KCNH2 (Homo sapiens, UniProt Q12809). The assay is classed as functional.
In assay [7] the target is Delta-type opioid receptor (Homo sapiens, UniProt P41143).
Assay [8] addresses T4, Prostaglandin G/H synthase 1 (Rattus norvegicus, UniProt Q63921).
T4 sequence (Q63921 whole entry): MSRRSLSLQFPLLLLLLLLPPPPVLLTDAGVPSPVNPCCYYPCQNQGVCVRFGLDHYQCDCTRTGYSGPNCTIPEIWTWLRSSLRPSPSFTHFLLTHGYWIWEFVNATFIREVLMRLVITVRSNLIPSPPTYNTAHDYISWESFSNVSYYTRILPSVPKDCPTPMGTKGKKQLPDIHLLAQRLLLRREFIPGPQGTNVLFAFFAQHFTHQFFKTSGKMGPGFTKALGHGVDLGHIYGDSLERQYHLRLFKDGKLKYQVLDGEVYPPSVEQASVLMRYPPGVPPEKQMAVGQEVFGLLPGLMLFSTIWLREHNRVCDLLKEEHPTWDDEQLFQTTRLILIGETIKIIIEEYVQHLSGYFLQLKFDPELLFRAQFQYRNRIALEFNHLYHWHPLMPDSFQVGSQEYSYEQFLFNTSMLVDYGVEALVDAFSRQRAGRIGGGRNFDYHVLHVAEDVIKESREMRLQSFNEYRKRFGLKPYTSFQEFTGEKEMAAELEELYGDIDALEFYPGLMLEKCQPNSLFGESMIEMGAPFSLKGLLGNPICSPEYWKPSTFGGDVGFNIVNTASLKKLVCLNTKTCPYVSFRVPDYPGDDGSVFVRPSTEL
The assay is classed as functional.

In assay [9] the target is T5, Thromboxane A2 receptor (Homo sapiens, UniProt P21731).
T5 sequence (P21731 whole entry): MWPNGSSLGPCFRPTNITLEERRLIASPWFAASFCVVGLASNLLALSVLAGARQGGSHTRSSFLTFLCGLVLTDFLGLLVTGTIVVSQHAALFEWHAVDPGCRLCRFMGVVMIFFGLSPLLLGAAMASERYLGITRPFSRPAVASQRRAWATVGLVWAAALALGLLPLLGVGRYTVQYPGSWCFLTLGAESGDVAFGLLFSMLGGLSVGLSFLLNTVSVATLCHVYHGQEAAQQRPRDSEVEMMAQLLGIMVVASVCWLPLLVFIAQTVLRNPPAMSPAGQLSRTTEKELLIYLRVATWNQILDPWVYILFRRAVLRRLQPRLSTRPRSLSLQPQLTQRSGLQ

In assay [10] the target is Sodium-dependent dopamine transporter (Homo sapiens, UniProt Q01959).
Assay [11] addresses D(3) dopamine receptor (Homo sapiens, UniProt P35462).
Also: assay procedure not described here.

Chain of Growth hormone secretagogue receptor type 1 (Q92847 whole entry): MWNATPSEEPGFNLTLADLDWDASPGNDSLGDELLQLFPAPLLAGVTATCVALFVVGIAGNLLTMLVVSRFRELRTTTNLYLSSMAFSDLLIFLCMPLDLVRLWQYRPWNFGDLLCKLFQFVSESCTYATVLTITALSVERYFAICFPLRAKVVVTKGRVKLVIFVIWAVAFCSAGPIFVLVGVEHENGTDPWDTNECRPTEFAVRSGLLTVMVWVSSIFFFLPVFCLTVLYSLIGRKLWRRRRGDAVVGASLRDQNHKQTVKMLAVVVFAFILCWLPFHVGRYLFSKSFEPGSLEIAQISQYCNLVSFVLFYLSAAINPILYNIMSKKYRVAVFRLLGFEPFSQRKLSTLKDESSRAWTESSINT
Chain of Delta-type opioid receptor (P41143 whole entry): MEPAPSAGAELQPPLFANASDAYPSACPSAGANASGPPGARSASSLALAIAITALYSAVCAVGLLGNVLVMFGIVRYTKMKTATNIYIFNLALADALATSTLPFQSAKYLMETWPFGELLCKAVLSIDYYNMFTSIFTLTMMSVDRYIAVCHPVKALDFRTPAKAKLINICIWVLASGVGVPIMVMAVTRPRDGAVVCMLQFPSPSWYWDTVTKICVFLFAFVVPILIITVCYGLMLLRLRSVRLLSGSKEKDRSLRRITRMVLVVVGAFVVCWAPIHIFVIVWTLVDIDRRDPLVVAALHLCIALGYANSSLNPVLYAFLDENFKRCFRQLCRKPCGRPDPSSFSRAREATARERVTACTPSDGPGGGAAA
Chain of D(3) dopamine receptor (P35462 whole entry): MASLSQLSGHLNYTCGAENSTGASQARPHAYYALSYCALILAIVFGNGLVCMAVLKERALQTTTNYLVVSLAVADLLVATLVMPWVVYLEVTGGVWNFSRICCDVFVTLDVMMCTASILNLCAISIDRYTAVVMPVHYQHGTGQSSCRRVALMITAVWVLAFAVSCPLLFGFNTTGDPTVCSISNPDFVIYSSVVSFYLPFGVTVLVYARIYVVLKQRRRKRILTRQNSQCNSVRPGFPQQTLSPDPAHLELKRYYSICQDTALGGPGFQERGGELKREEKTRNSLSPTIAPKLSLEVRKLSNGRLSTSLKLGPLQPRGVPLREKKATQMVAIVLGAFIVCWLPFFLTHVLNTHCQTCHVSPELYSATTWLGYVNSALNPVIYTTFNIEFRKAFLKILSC
Chain of Sodium-dependent dopamine transporter (Q01959 whole entry): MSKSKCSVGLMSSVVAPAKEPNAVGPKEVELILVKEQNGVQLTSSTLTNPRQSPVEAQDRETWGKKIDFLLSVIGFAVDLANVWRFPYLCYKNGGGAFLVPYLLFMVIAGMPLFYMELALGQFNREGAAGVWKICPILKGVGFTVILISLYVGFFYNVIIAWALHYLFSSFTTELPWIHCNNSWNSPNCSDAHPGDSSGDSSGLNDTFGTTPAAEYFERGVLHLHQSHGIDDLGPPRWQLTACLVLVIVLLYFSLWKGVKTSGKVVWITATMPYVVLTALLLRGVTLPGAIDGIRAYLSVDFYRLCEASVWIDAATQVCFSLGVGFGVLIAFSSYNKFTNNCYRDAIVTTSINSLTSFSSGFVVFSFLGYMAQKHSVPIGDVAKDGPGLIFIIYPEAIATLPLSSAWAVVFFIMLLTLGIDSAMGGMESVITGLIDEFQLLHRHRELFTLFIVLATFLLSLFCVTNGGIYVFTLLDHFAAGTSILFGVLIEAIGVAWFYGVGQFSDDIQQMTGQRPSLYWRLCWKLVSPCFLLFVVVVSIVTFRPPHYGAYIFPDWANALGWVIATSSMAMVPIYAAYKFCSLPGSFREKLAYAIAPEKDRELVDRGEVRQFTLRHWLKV
Chain of Voltage-gated inwardly rectifying potassium channel KCNH2 (Q12809 whole entry): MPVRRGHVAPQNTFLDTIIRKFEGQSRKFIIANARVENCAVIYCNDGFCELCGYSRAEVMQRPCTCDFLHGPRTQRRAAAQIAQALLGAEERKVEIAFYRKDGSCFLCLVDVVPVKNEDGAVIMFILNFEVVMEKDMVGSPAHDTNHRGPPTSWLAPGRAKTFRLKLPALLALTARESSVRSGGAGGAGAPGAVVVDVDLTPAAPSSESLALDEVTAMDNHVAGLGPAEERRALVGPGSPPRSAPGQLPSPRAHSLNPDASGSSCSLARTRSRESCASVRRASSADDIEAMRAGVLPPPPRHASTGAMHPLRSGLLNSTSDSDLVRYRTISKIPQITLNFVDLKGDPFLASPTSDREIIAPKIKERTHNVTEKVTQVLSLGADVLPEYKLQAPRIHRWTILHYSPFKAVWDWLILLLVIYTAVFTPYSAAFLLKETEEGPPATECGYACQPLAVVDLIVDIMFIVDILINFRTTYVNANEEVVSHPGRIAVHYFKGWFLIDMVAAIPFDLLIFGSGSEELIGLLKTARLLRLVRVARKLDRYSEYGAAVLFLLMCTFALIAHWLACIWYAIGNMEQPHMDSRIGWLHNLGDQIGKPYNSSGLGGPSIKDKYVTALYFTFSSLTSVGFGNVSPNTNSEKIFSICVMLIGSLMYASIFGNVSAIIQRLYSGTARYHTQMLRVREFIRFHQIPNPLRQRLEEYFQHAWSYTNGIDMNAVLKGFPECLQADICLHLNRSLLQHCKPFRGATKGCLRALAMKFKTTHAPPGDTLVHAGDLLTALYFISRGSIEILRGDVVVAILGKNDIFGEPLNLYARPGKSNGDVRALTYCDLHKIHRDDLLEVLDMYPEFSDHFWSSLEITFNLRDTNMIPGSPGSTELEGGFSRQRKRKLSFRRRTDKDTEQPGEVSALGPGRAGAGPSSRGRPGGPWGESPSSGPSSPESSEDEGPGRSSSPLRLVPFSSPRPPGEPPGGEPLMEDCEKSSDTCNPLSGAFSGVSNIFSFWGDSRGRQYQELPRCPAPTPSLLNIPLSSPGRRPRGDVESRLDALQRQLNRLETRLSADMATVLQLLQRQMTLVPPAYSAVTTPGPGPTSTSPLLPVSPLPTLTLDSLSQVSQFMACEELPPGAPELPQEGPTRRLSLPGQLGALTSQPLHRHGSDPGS

For the molecule `CC(C(=O)O)c1ccc(-c2ccccc2)c(F)c1` (stereo unspecified) [FLURBIPROFEN], the AC50 (usually the concentration giving half of the maximal activity seen) in [1] is greater than 10 µM; in assay [2], greater than 10 µM; in assay [3] it was greater than 10 µM; in assay [4], greater than 10 µM; in assay [5], greater than 10 µM; in [6], greater than 30 µM. The half-maximal activity concentration (AC50) in assay [7] is greater than 30 µM; in [8], 11 µM; in [9] it was greater than 10 µM; in assay [10] it was greater than 10 µM; in [11] it was 0.086 µM.
Regarding `CCC(=O)O[C@]1(C(=O)SCF)[C@H](C)C[C@H]2[C@@H]3C[C@H](F)C4=CC(=O)C=C[C@]4(C)[C@@]3(F)[C@@H](O)C[C@@]21C` [FLUTICASONE PROPIONATE], the concentration at half-maximal activity (AC50) in assay [1], in [2], in assay [3], in assay [4], in assay [5] and in [6] was greater than 30 µM each time. For the same molecule, the concentration at half-maximal activity (AC50) in [7], in assay [8], in assay [9], in [10] and in [11] was greater than 30 µM throughout.
Regarding `C[C@]12CCC(=O)C(O)=C1CC[C@@H]1[C@@H]2CC[C@]2(C)C(=O)CC[C@@H]12` [FORMESTANE], the half-maximal activity concentration (AC50) in assay [1], in [2], in assay [3], in assay [4], in [5] and in assay [6] was greater than 30 µM throughout. Besides, the half-maximal activity concentration (AC50) in assay [7], in [8], in [9], in [10] and in [11] was greater than 30 µM each time.
As to `CCC1(c2ccccc2)CCC(=O)NC1=O` (stereo unspecified) [GLUTETHIMIDE], the half-maximal activity concentration (AC50) in assay [1] is greater than 10 µM; in assay [2], greater than 10 µM; in assay [3] it was greater than 10 µM; in [4], greater than 10 µM; in assay [5], greater than 30 µM; in assay [6], greater than 30 µM. Further, the AC50 in assay [7] was greater than 30 µM; in assay [8], greater than 10 µM; in assay [9], greater than 10 µM; in assay [10], greater than 10 µM; in [11], greater than 30 µM.
In the case of `CC(C(=O)O)c1ccc(CC2CCCC2=O)cc1` (stereo unspecified) [LOXOPROFEN], the concentration at half-maximal activity (AC50) in [1], in assay [2], in [3], in assay [4], in [5] and in assay [6] was greater than 30 µM throughout. In addition, the AC50 in assay [7], in [8], in assay [9], in [10] and in assay [11] was greater than 30 µM each time.
As for `C[C@H](Cc1ccc(O)c(O)c1)[C@@H](C)Cc1ccc(O)c(O)c1` [MASOPROCOL], the AC50 is greater than 10 µM in assay [1]; greater than 30 µM in assay [2]; greater than 10 µM in [3]; greater than 10 µM in [4]; greater than 10 µM in [5]; greater than 30 µM in [6]. Also, the half-maximal activity concentration (AC50) in [7] was greater than 30 µM; in [8] it was 18 µM and 14 µM and 12 µM; in assay [9], > 10 µM and 29 µM (2×); in assay [10], 3.4 µM and 5.4 µM and 5.2 µM; in assay [11], 1.8 µM.
On to `CCOC(=O)C1=C(C)NC(C)=C(C(=O)OC)C1c1cccc([N+](=O)[O-])c1` (stereo unspecified) [NITRENDIPINE], for which the concentration at half-maximal activity (AC50) in assay [1] is greater than 10 µM; in [2], greater than 10 µM; in assay [3] it was greater than 30 µM; in assay [4], greater than 10 µM; in [5], greater than 10 µM; in [6], greater than 30 µM. Also, the AC50 in assay [7] was greater than 30 µM; in [8] it was greater than 30 µM; in assay [9] it was greater than 30 µM; in assay [10], 32.2 µM; in assay [11] it was greater than 30 µM.
On to `C#C[C@]1(OC(C)=O)CC[C@H]2[C@@H]3CCC4=C/C(=N/O)CC[C@@H]4[C@H]3CC[C@@]21CC` [NORGESTIMATE], for which the concentration at half-maximal activity (AC50) in assay [1], in [2], in assay [3], in assay [4], in assay [5] and in assay [6] was greater than 30 µM throughout. Moreover, the AC50 was greater than 30 µM in assay [7]; 7.8 µM in [8]; greater than 30 µM in assay [9]; 10 µM in assay [10]; 29 µM in assay [11].
On to `[H]/N=C(/N)N/C(=N/[H])NCCc1ccccc1` [PHENFORMIN], for which the AC50 in assay [1] was greater than 10 µM; in assay [2], greater than 30 µM; in assay [3], greater than 30 µM; in assay [4], 2.32 µM; in assay [5], greater than 30 µM; in assay [6], greater than 30 µM. Further, the AC50 was greater than 30 µM in [7]; greater than 30 µM in assay [8]; greater than 30 µM in assay [9]; 25.2 µM in assay [10]; greater than 30 µM in assay [11].
In the case of `CCCCC1C(=O)N(c2ccccc2)N(c2ccccc2)C1=O` [PHENYLBUTAZONE], the AC50 is greater than 10 µM in assay [1]; greater than 10 µM in assay [2]; greater than 30 µM in [3]; greater than 10 µM in assay [4]; greater than 10 µM in [5]; greater than 30 µM in assay [6]. The concentration at half-maximal activity (AC50) in assay [7] is greater than 30 µM; in [8], greater than 10 µM; in assay [9], greater than 30 µM; in [10], greater than 30 µM; in [11], greater than 30 µM.
On to `CC(N)C(O)c1ccccc1` (stereo unspecified) [PHENYLPROPANOLAMINE], for which the AC50 in [1] is greater than 10 µM; in assay [2], 7.3 µM; in assay [3] it was greater than 30 µM; in assay [4], greater than 10 µM; in assay [5], greater than 10 µM; in assay [6] it was greater than 30 µM. For the same molecule, the concentration at half-maximal activity (AC50) in [7] is greater than 10 µM; in assay [8] it was greater than 30 µM; in assay [9], greater than 30 µM; in [10], greater than 30 µM; in assay [11], greater than 10 µM.
